tested on: old rats; assay: Effect on sleep patterns (EEG pattern) in old rats; format: in vivo; settings: single dose, ip
Protocol: In these animals the EEG patterns are disturbed. Administration of an effective amount of a CCK-B antagonist to such an animal alters the EEG pattern towards the normal. These effects may be observed using standard procedures such as those described by H.Depoortere et al. Physiology & Behaviour 1993, 54, 785-793.
The ability of CCK-B antagonists to effect sleep patterns in old rats was measured by examining the effect of the compound on the EEG pattern using the procedures described by H Depoortere et al. Physiology & Behaviour 1993 54, 785-793.

Structure (SMILES) | Dose that resulted in a significant improvement in total sleep time pattern
O=C(Nc1cccc(C(=O)O)c1)NC1C(=O)N(CC23CC4CC(CC(C4)C2)C3)c2ccccc2N(c2ccccc2)C1=O (stereo not drawn) [Compound 5, N-1[-(Adamantylmethyl)-2,4,-dioxo-5-phenyl-2,3,4,5-tetrahydro-1H-1,5-benzodiazepin-3-yl]-N′-(3-carboxyphenyl)urea] | 15 µg/kg
CN(C)CCN1C(=O)C(NC(=O)Nc2ccccc2)C(=O)N(CC23CC4CC(CC(C4)C2)C3)c2ccccc21 (stereo not drawn) [Compound 6] | 0.5 µg/kg
O=C(Nc1ccccc1)NC1C(=O)N(CCN2CCOCC2)c2ccccc2N(CC23CC4CC(CC(C4)C2)C3)C1=O (single isomer, unassigned; (-)) [Compound 2, (−) N-[1-(1-Adamantylmethyl)-2,4-dioxo-5-[2-(4-morpholino)ethyl]-2,3,4,5-tetrahydro-1H-benzodiazepin-3-yl]-N′-phenylurea] | 0.5 µg/kg
CC(CNCC(NC(=O)CCC(=O)O)c1ccccc1)(Cc1c[nH]c2ccccc12)NC(=O)OC1C2CC3CC(C2)CC1C3.CNCC(O)C(O)C(O)C(O)CO (stereo not drawn) [Compound 4, (R-(R*, R*))4-((2-((3-(1H-indol-3-yl)-2-methyl-2-((tricyclo(3,3,1,1,3,7)dec-2yloxy)carbonyl)aminopropyl)amino)-1-phenylethyl)amino-4-oxo-butanoic acid meglumine salt] | 5 µg/kg
Cc1cccc(NC(=O)NC2N=C(c3ccccc3)c3ccccc3N(C)C2=O)c1 (stereo not drawn) [Compound 3, N-(2,3-dihydro-1-methyl-2-oxo-5-phenyl-1H-1,4-benzodiazepin-3-yl]-N′-3-methylphenyl urea] | 5 µg/kg

same assay, conditions: single dose, ip and po

Structure (SMILES) | Dose that resulted in a significant improvement in total sleep time pattern
O=C(Nc1ccccc1)NC1C(=O)N(CC23CC4CC(CC(C4)C2)C3)c2ccccc2N(c2ccccc2)C1=O (single isomer, unassigned; (+)) [Compound 1, (+) N-phenyl-N′-[2,3,4,5-tetrahydro-2,4-dioxo-1-(1-adamantylmethyl)-5-phenyl-1H-1,5-benzodiazepin-3-yl]urea] | 5 µg/kg
